# Assay results from patent US20170107179A1 (Tetraphase Pharmaceuticals, Inc., priority 2010, published 2017).
# Read-outs that look alike come from different tables or passages of the source.
# Assays:
# [1] = tested on: E. coli DH10B EC1082 TetA; assay: MIC, E. coli DH10B recombinantly expressing tetracycline-resistance gene; details: arabinose-induced, ampicillin in medium
# [2] = tested on: S. pneumoniae SP106; type: cell-based; details: SP106, plates containing compound at 5× the MIC, 5% sheep blood
# [3] = tested on: S. maltophila; assay: Broth microdilution MIC by tetracycline resistance phenotype (Table 10); type: cell-based; set-up: unit not given beside the values
# [4] = tested on: Gram-positive pathogens; assay: Broth microdilution MIC, respiratory/skin pathogens (Table 12)
# [5] = tested on: Gram-negative and Gram-positive organisms (clinical isolates); assay: Broth microdilution MIC against clinical isolates (CLSI M7-A8), Table 9; type: cell-based
# [6] = tested on: S. pneumoniae strain SP514; assay: Immunocompetent CD-1 murine lung infection model; type: in vivo; details: immunocompetent CD-1 mice, SP514, orally dosed 30 mg/kg at 5, 24 and 36 hours post-infection (FIG. 2)
# Method: Compound 102 was tested in an immunocompetent CD-1 murine model of lung infection challenged with S. pneumoniae strain SP514.
# [7] = tested on: Gram-negative respiratory pathogens; assay: Broth microdilution MIC, respiratory pathogens; type: cell-based; details: generally
# [8] = Preliminary pharmacokinetics in Sprague Dawley rats; details: rat, in vivo, po; Sprague Dawley rats (n = 3), initial preliminary testing; read-out: oral bioavailability (% F)
# [9] = tested on: E. coli DH10B EC970 TetK; assay: MIC, E. coli DH10B recombinantly expressing tetracycline-resistance gene; details: arabinose-induced, ampicillin in medium
structure (smiles),measurement,setting,value
CN(C)[C@@H]1C(O)=C(C(N)=O)C(=O)[C@@]2(O)C(O)=C3C(=O)c4c(O)c5c(c(F)c4C[C@H]3C[C@@H]12)CN(C(C)(C)C)C5 [Compound 102],MIC EC1082 TetA,[1],2
same,spontaneous resistance frequency,[2],1×10^−8
same,MIC50,"[3]; TET NS, n=19",1
same,MIC90,"[3]; TET NS, n=19",4
same,MIC50,"[3]; TET S, n=10",0.5
same,MIC90,"[3]; TET S, n=10",0.5
same,"MICs, fold higher than those of tigecycline","[4]; Gram-positive aerobic pathogens, generally",2-4 fold
same,MICs relative to tetracycline,[4]; pneumococci and beta-hemolytic streptococci,several-fold lower than those of tetracycline
same,MICs relative to tetracycline,[4]; staphylococci,comparable to those of tetracycline
same,MICs against tetracycline resistant isolates relative to tetracycline susceptible isolates,[5],not notably altered
same,MICs relative to tetracycline,[5],comparable MICs relative to tetracycline
same,potency against tetracycline resistant isolates,[5],maintained potency
same,"potency by MIC50/MIC90, Gram-positive relative to Gram-negative pathogens",[5],more potent by MIC50/MIC90 against Gram-positive pathogens relative to Gram-negative pathogens
same,potency relative to tetracycline,[5],more potent
same,MIC50,"[5]; Acinetobacter lwoffii, n=29, read-out: MIC50",0.12 µg/mL
same,MIC90,"[5]; Acinetobacter lwoffii, n=29, read-out: MIC90",0.5 µg/mL
same,"MICs, fold lower than tetracycline","[5]; Acinetobacter lwoffli, S. maltophila, and streptococci",2-4 fold
same,MIC50,"[5]; Enterobacter cloacae, n=29, read-out: MIC50",4 µg/mL
same,MIC90,"[5]; Enterobacter cloacae, n=29, read-out: MIC90",8 µg/mL
same,MIC50,"[5]; Escherichia coli, n=40, read-out: MIC50",2 µg/mL
same,MIC90,"[5]; Escherichia coli, n=40, read-out: MIC90",4 µg/mL
same,MIC50,"[5]; Kiebsielia oxytoca, n=30, read-out: MIC50",1 µg/mL
same,MIC90,"[5]; Kiebsielia oxytoca, n=30, read-out: MIC90",4 µg/mL
same,MIC50,"[5]; Klebsiella aerogenes, Enterobacter aerogenes, n=30, read-out: MIC50",2 µg/mL
same,MIC90,"[5]; Klebsiella aerogenes, Enterobacter aerogenes, n=30, read-out: MIC90",2 µg/mL
same,MIC50,"[5]; Klebsiella pneumoniae, Klebsiella pneumonia, n=27, read-out: MIC50",4 µg/mL
same,MIC90,"[5]; Klebsiella pneumoniae, Klebsiella pneumonia, n=27, read-out: MIC90",16 µg/mL
same,MIC50,"[5]; Morganella morganii, n=30, read-out: MIC50",8 µg/mL
same,MIC90,"[5]; Morganella morganii, n=30, read-out: MIC90",16 µg/mL
same,MIC50,"[5]; Proteus vulgaris, n=29, read-out: MIC50",8 µg/mL
same,MIC90,"[5]; Proteus vulgaris, n=29, read-out: MIC90",> 16 µg/mL
same,MIC50,"[5]; Salmonella species, n=30",2 µg/mL
same,MIC90,"[5]; Salmonella species, n=30",2 µg/mL
same,MIC50,"[5]; Serratia marcescens, n=30, read-out: MIC50",4 µg/mL
same,MIC90,"[5]; Serratia marcescens, n=30, read-out: MIC90",8 µg/mL
same,MIC50,"[5]; Shigella species, n=30, read-out: MIC50",0.5 µg/mL
same,MIC50,"[5]; Staphylococcus aureus, Staphylococcus aureus (MRSA PVL+), n=30, read-out: MIC50",0.25 µg/mL
same,MIC90,"[5]; Staphylococcus aureus, Staphylococcus aureus (MRSA PVL+), n=30, read-out: MIC90",0.25 µg/mL
same,MIC50,"[5]; Staphylococcus aureus, Staphylococcus aureus MRSA (includes MRSA PVL+ group), n=105, read-out: MIC50",0.5 µg/mL
same,MIC90,"[5]; Staphylococcus aureus, Staphylococcus aureus MRSA (includes MRSA PVL+ group), n=105, read-out: MIC90",2 µg/mL
same,MIC50,"[5]; Stenotrophomonas maltophilia, n=29, read-out: MIC50",0.5 µg/mL
same,MIC90,"[5]; Stenotrophomonas maltophilia, n=29, read-out: MIC90",2 µg/mL
same,MIC50,"[5]; Streptococcus anginosus, n=20, read-out: MIC50",0.06 µg/mL
same,MIC90,"[5]; Streptococcus anginosus, n=20, read-out: MIC90",0.25 µg/mL
same,MIC50,"[5]; Streptococcus intermedius, n=30, read-out: MIC50",0.12 µg/mL
same,MIC90,"[5]; Streptococcus intermedius, n=30, read-out: MIC90",0.12 µg/mL
same,MIC50,"[5]; Streptococcus mitis, n=29, read-out: MIC50",0.12 µg/mL
same,MIC90,"[5]; Streptococcus mitis, n=29, read-out: MIC90",0.25 µg/mL
same,MIC50,"[5]; Streptococcus sanguis, n=18, read-out: MIC50",0.06 µg/mL
same,MIC90,"[5]; Streptococcus sanguis, n=18, read-out: MIC90",0.12 µg/mL
same,"MICs, fold higher than those of tigecycline","[5]; evaluated Gram-negative and Gram-positive pathogens, generally",2-4 fold
same,log10 reduction in CFU versus the 48 hour untreated control,[6],6.14+/−0.66 log10
same,"MICs, fold higher than those of tigecycline",[7],2-4 fold
same,bioavailability,[8],48.3%
same,MIC EC970 TetK,[9],0.5
